Measurements published in PMC9518264, “Design and synthesis of novel quinazolinone-based derivatives as EGFR inhibitors with antitumor activity” (Journal of Enzyme Inhibition and Medicinal Chemistry, 2022).

Key:
CCRF-CEM = assay: cells; assay type: cell-based; conditions: Homo sapiens, read-out: growth inhibition % (GI%)
K-562 = assay: cells; assay type: cell-based; conditions: Homo sapiens, K562, read-out: growth inhibition % (GI%)
MOLT-4 = assay: cells; assay type: cell-based; conditions: Homo sapiens, MOLT-4, read-out: growth inhibition % (GI%)
RPMI-8226 = assay: cells; assay type: cell-based; conditions: Homo sapiens, RPMI-8226, read-out: growth inhibition % (GI%)
SR = assay: cells; assay type: cell-based; conditions: Homo sapiens, read-out: growth inhibition % (GI%)
A549/ATCC = assay: cells; assay type: cell-based; conditions: Homo sapiens, A549, read-out: growth inhibition % (GI%)
EKVX = assay: cells; assay type: cell-based; conditions: Homo sapiens, read-out: growth inhibition % (GI%)
HOP-92 = assay: cells; assay type: cell-based; conditions: Homo sapiens, HOP-92, read-out: growth inhibition % (GI%)
NCI-H226 = assay: cells; assay type: cell-based; conditions: Homo sapiens, NCI-H226, read-out: growth inhibition % (GI%)
NCI-H322M = assay: cells; assay type: cell-based; conditions: Homo sapiens, read-out: growth inhibition % (GI%)
NCI-H460 = assay: cells; assay type: cell-based; conditions: Homo sapiens, NCI-H460, read-out: growth inhibition % (GI%)
NCI-H522 = assay: cells; assay type: cell-based; conditions: Homo sapiens, NCI-H522, read-out: growth inhibition % (GI%)
COLO-205 = assay: cells; assay type: cell-based; conditions: Homo sapiens, COLO 205, read-out: growth inhibition % (GI%)
HCC-2998 = assay: cells; assay type: cell-based; conditions: Homo sapiens, HCC 2998, read-out: growth inhibition % (GI%)
HCT-116 = assay: cells; assay type: cell-based; conditions: Homo sapiens, HCT-116, read-out: growth inhibition % (GI%)
HCT-15 = assay: cells; assay type: cell-based; conditions: Homo sapiens, HCT-15, read-out: growth inhibition % (GI%)
HT29 = assay: cells; assay type: cell-based; conditions: Homo sapiens, HT-29, read-out: growth inhibition % (GI%)
KM12 = assay: cells; assay type: cell-based; conditions: Homo sapiens, KM12, read-out: growth inhibition % (GI%)
SF-268 = assay: cells; assay type: cell-based; conditions: Homo sapiens, SF-268, read-out: growth inhibition % (GI%)
SF-295 = assay: cells; assay type: cell-based; conditions: Homo sapiens, SF-295, read-out: growth inhibition % (GI%)
SF-539 = assay: cells; assay type: cell-based; conditions: Homo sapiens, SF-539, read-out: growth inhibition % (GI%)
SNB-19 = assay: cells; assay type: cell-based; conditions: Homo sapiens, SNB-19, read-out: growth inhibition % (GI%)
SNB-75 = assay: cells; assay type: cell-based; conditions: Homo sapiens, SNB-75, read-out: growth inhibition % (GI%)
U251 = assay: cells; assay type: cell-based; conditions: Homo sapiens, U-251, read-out: growth inhibition % (GI%)
LOX IMIV = assay: cells; assay type: cell-based; conditions: Homo sapiens, 60 cell, read-out: growth inhibition % (GI%)
MALME-3M = assay: cells; assay type: cell-based; conditions: Homo sapiens, Malme-3M, read-out: growth inhibition % (GI%)
MDA-MB-435 = assay: cells; assay type: cell-based; conditions: Homo sapiens, MDA-MB-435, read-out: growth inhibition % (GI%)
SK-MEL-2 = assay: cells; assay type: cell-based; conditions: Homo sapiens, SK-MEL-2, read-out: growth inhibition % (GI%)
SK-MEL-5 = assay: cells; assay type: cell-based; conditions: Homo sapiens, SK-MEL-5, read-out: growth inhibition % (GI%)
UACC-257 = assay: cells; assay type: cell-based; conditions: Homo sapiens, UACC-257, read-out: growth inhibition % (GI%)
UACC-62 = assay: cells; assay type: cell-based; conditions: Homo sapiens, UACC-62, read-out: growth inhibition % (GI%)
IGROV1 = assay: cells; assay type: cell-based; conditions: Homo sapiens, IGROV-1, read-out: growth inhibition % (GI%)
OVCAR-4 = assay: cells; assay type: cell-based; conditions: Homo sapiens, OVCAR-4, read-out: growth inhibition % (GI%)
OVCAR-8 = assay: cells; assay type: cell-based; conditions: Homo sapiens, OVCAR-8, read-out: growth inhibition % (GI%)
NCI/ADR-RES = assay: cells; assay type: cell-based; conditions: Homo sapiens, read-out: growth inhibition % (GI%)
SK-OV-3 = assay: cells; assay type: cell-based; conditions: Homo sapiens, SK-OV-3, read-out: growth inhibition % (GI%)
A498 = assay: cells; assay type: cell-based; conditions: Homo sapiens, A498, read-out: growth inhibition % (GI%)
SN12C = assay: cells; assay type: cell-based; conditions: Homo sapiens, read-out: growth inhibition % (GI%)
TK-10 = assay: cells; assay type: cell-based; conditions: Homo sapiens, TK-10, read-out: growth inhibition % (GI%)
UO-31 = assay: cells; assay type: cell-based; conditions: Homo sapiens, UO-31, read-out: growth inhibition % (GI%)
PC-3 = assay: cells; assay type: cell-based; conditions: Homo sapiens, PC-3, read-out: growth inhibition % (GI%)
MCF7 = assay: cells; assay type: cell-based; conditions: Homo sapiens, MCF7, read-out: growth inhibition % (GI%)
HS 578T = assay: cells; assay type: cell-based; conditions: Homo sapiens, Hs-578T, read-out: growth inhibition % (GI%)
BT-549 = assay: cells; assay type: cell-based; conditions: Homo sapiens, BT-549, read-out: growth inhibition % (GI%)
T-47D = assay: cells; assay type: cell-based; conditions: Homo sapiens, T47D, read-out: growth inhibition % (GI%)
[1] = tested on: panel of 60 tumour cell lines; assay: NCI 60 cell line antiproliferative screening (SRB), whole panel or subpanels (means, ranges, words); assay type: cell-based, human; conditions: 10 μM
OVCAR-3 = assay: NCI 60 cell line antiproliferative screening (SRB), Ovarian cancer; conditions: Homo sapiens, OVCAR-3, read-out: growth inhibition % (GI%)

**Q.** How did the inhibition at 10 µM (CCRF-CEM) turn out when COc1ccc(Oc2ccc(C=NNC(=O)CSc3nc4ccccc4c(=O)n3-c3ccc(Cl)cc3)cc2)cc1 [6f, 2-((3–(4-chlorophenyl)-4-oxo-3,4-dihydroquinazolin-2-yl)thio)-N'-(4–(4-methoxyphenoxy)benzylidene)acetohydrazide] was run?
**A.** 36.5%

**Q.** What about the inhibition at 10 µM (K-562) of the same compound?
**A.** 41.6%

**Q.** And the inhibition at 10 µM (MOLT-4)?
**A.** 38.3%

**Q.** What about the inhibition at 10 µM (RPMI-8226) of the same compound?
**A.** 14.9%

**Q.** And the inhibition at 10 µM (SR)?
**A.** 27.2%

**Q.** And the inhibition at 10 µM (A549/ATCC)?
**A.** 53%

**Q.** What about the inhibition at 10 µM (EKVX) of the same compound?
**A.** 30.6%

**Q.** What about the inhibition at 10 µM (HOP-92) of the same compound?
**A.** 22.7%

**Q.** And the inhibition at 10 µM (NCI-H226)?
**A.** 20.3%

**Q.** What about the inhibition at 10 µM (NCI-H322M) of the same compound?
**A.** 15.3%

**Q.** What about the inhibition at 10 µM (NCI-H460) of the same compound?
**A.** 88.8%

**Q.** And the inhibition at 10 µM (NCI-H522)?
**A.** 48.7%

**Q.** And the inhibition at 10 µM (COLO-205)?
**A.** 27.2%

**Q.** What about the inhibition at 10 µM (HCC-2998) of the same compound?
**A.** 16.6%

**Q.** What about the inhibition at 10 µM (HCT-116) of the same compound?
**A.** 86.7%

**Q.** What about the inhibition at 10 µM (HCT-15) of the same compound?
**A.** 44%

**Q.** And the inhibition at 10 µM (HT29)?
**A.** 83.9%

**Q.** What about the inhibition at 10 µM (KM12) of the same compound?
**A.** 22.8%

**Q.** What about the inhibition at 10 µM (SF-268) of the same compound?
**A.** 42.1%

**Q.** And the inhibition at 10 µM (SF-295)?
**A.** 32.3%

**Q.** What about the inhibition at 10 µM (SF-539) of the same compound?
**A.** 67.8%

**Q.** What about the inhibition at 10 µM (SNB-19) of the same compound?
**A.** 38.5%

**Q.** What about the inhibition at 10 µM (SNB-75) of the same compound?
**A.** 58.4%

**Q.** And the inhibition at 10 µM (U251)?
**A.** 63.5%

**Q.** What about the inhibition at 10 µM (LOX IMIV) of the same compound?
**A.** 85.3%

**Q.** What about the inhibition at 10 µM (MALME-3M) of the same compound?
**A.** 36.1%

**Q.** What about the inhibition at 10 µM (MDA-MB-435) of the same compound?
**A.** < 15%

**Q.** What about the inhibition at 10 µM (SK-MEL-2) of the same compound?
**A.** < 15%

**Q.** And the inhibition at 10 µM (SK-MEL-5)?
**A.** 22%

**Q.** And the inhibition at 10 µM (UACC-257)?
**A.** < 15%

**Q.** And the inhibition at 10 µM (UACC-62)?
**A.** 38.1%

**Q.** And the inhibition at 10 µM (IGROV1)?
**A.** 51.4%

**Q.** What about the inhibition at 10 µM (OVCAR-4) of the same compound?
**A.** 27.4%

**Q.** And the inhibition at 10 µM (OVCAR-8)?
**A.** < 15%

**Q.** What about the inhibition at 10 µM (NCI/ADR-RES) of the same compound?
**A.** 48.9%

**Q.** What about the inhibition at 10 µM (SK-OV-3) of the same compound?
**A.** 33.7%

**Q.** What about the inhibition at 10 µM (A498) of the same compound?
**A.** 27.1%

**Q.** And the inhibition at 10 µM (SN12C)?
**A.** 47.3%

**Q.** And the inhibition at 10 µM (TK-10)?
**A.** < 15%

**Q.** And the inhibition at 10 µM (UO-31)?
**A.** 52.3%

**Q.** And the inhibition at 10 µM (PC-3)?
**A.** 36.3%

**Q.** What about the inhibition at 10 µM (MCF7) of the same compound?
**A.** 50.7%

**Q.** What about the inhibition at 10 µM (HS 578T) of the same compound?
**A.** > 100%

**Q.** What about the inhibition at 10 µM (BT-549) of the same compound?
**A.** < 15%

**Q.** What about the inhibition at 10 µM (T-47D) of the same compound?
**A.** 62.1%

**Q.** And the “GI% range over a subset of cell lines” value ([1]; subset of cell lines whose number is stated in the sentence)?
**A.** 67.83 to 30.59%

**Q.** And the inhibition at 10 µM ([1]; Homo sapiens, 60 cell, mean over the cell line panel, read-out: Mean growth inhibition % (mean GI%))?
**A.** 42.5%

**Q.** What about the inhibition at 10 µM (OVCAR-3) of the same compound?
**A.** > 100%
